# Experimental data reported in patent EP0591582B1, “Hexahydrobenzo (f) quinolinones as 5-alpha-reductase inhibitors” (ELI LILLY AND COMPANY, priority 1992, dated 1994).
# Biological target: T1, 5α-reductase (Homo sapiens, UniProt P18405)
# T1 construct: host or cells: Hs68 human genital skin fibroblasts
# T1 sequence (P18405 1-259): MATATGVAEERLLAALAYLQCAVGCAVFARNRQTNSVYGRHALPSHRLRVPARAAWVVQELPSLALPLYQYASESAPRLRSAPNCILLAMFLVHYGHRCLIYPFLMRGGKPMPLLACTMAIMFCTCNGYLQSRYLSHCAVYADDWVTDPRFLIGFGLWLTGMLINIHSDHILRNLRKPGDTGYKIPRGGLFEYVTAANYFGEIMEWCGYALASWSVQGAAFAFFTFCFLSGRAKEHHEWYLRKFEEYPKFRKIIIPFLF
# Assay: 5α-Reductase activity (conversion of testosterone to DHT) in Hs68 human genital skin fibroblasts, TLC of radiolabelled steroids
# Type: cell-based
# Details: Concentration 0.316 mM; Hs68 cells, four hours incubation; 0 equals no activity, 100 equals total inhibition
# Procedure: Cell Culture: 5α-Reductase activity was measured using Hs68 human genital skin fibroblasts which were originally purchased from the American Type Culture Collection(Rockville, MD). The cells were grown in Dulbecco's Modified Eagle's Medium (DMEM) plus 10% stripped fetal bovine serum which was supplemented with amphotericin B ([…]) and gentamicin ([…]) (GIBCO, Grand Island, NY). The serum was stripped of endogenous steroids by incubation with dextran-coated charcoal prior to its addition to the media. The cells were maintained at 37°C in an atmosphere of 95% air, 5% CO2 and were passaged every 7-10 days by exposure to a trypsin-EDTA solution (0.025% trypsin, 0.265 mM EDTA). Prior to the assay the Hs68 cells were harvested and plated in Falcon 6-well plates (Becton Dickinson Labware, Lincoln Park, NJ) at a density of 6 x 10^4 cells per well. The cells were allowed to grow for 4-5 days or until they reached approximately 80% confluence.
# Assay Method I: The substrate was prepared by dissolving unlabeled testosterone (Sigma Chemical Co., St. Louis, MO) in absolute ethanol followed by the addition of [7-^3H (N)]-testosterone (23.3 Ci/mmole, New England Nuclear, Boston, MA). The steroid solution was taken to dryness under a stream of nitrogen and then reconstituted in media.
# Assay Method II: The substrate used for this method was [^14C]-testosterone (50 mCi/mmol) (New England Nuclear, Boston, MA). An aliquot of the substrate was taken to dryness under a stream of nitrogen. After the addition of […] of ethanol, the testosterone was brought up in an appropriate volume of media.
# Sample Preparation: The test compounds were dissolved in absolute ethanol in order to achieve the desired concentration. Subsequent dilutions of the test compounds with media were performed by the Biomek 1000 Automated Laboratory Workstation (Beckman Instruments, Palo Alto, CA). The existing media in the sample wells was aspirated and replaced with fresh media. Test compound was then added to the wells followed by the addition of 0.5 ml of the substrate. The volume of the incubation mixture was maintained at 2.0 ml. The final substrate concentration was […]. The concentration of the test compounds ranged from 0.001-15 mM. An additional three wells (background) containing media and substrate but no cells were also included to account for the non-enzymatic metabolism of the substrate. The plates were returned to the incubator and incubated for four hours.
# At the end of the incubation the media was collected and transferred to an extraction tube containing 5 ml of toluene-ethanol (9:1), to which has been added […] each of unlabeled carrier steroids (estriol, estradiol, estrone, 5α-androstan-3α,17b-diol, 5α-androstan-3b,17b-diol, 4-androstene-3,17-dione, 5α-androstan-3,17-dione, testosterone, and 5α-dihydrotestosterone) (Steraloids, Inc. Wilton, NH). In the case of Assay Method I the extraction tube also contained 1,000 and 10,000 dpm of [4-^14C]-dihydrotestosterone(50-60 mCi/mmol) and [4-^14C]-testosterone (50 mCi/mmol) (New England Nuclear, Boston, MA), respectively. The [^14C]-steroids were included as recovery standards to quantify procedural losses. A small amount of NaCl was also added to the extraction tubes to prevent foaming. The samples were vortexed for approximately 30 seconds and then centrifuged for 10 minutes at 500 x g. The organic phase was collected and the samples taken to dryness, redissolved in dichloromethane-methanol (9:1) and were analyzed by thin layer chromatography using one of the methods described below.
# Chromatography Method I (two-dimensional): The extracted samples were appled to silica gel 60F254, 0.25 mm thick, thin layer chromatography plates (EM Science, Cincinnati, OH). The plates were developed in the first dimension with a solvent system containing dichloromethaneethyl acetate-methanol-acetic acid (160:38:1.5:0.5, Mallinckrodt Inc., Paris, KY). […]
row,inhibition at 316 µM [%],Compound
1,85,"O=C1CCC2=C(CCc3cc(Cl)c(Cl)cc32)N1 [Example 3, 8,9-dichloro-1,2,3,4,5,6-hexahydrobenzo[f]quinolin-3-one]"
2,73,"O=C1CCC2=C(CCc3cc(Br)ccc32)N1 [Example 1, 8-bromo-1,2,3,4,5,6-hexahydrobenzo[f]quinolin-3-one]"
3,30,"CC1(C)CC2=C(CCC(=O)N2)c2ccc(Br)cc21 [Example 14, 8-bromo-6,6-dimethyl-1,2,3,4,5,6-hexahydrobenzo[f]quinolin-3-one]"

# Same assay, conditions: Concentration 3.16 mM; Hs68 cells, four hours incubation; 0 equals no activity, 100 equals total inhibition
row,inhibition at 3160 µM [%],Compound
1,30,"CC(C)(C)c1ccc2c(c1)CCC1=C2CCC(=O)N1 [Example 15, 8-t-butyl-1,2,3,4,5,6-hexahydrobenzo[f]quinolin-3-one]"

# Same assay, conditions: Concentration 10.0 mM; Hs68 cells, four hours incubation; 0 equals no activity, 100 equals total inhibition
row,inhibition at 10000 µM [%],Compound
1,63,"O=C1CCC2=C(CCc3ccccc32)N1 [Example 8, 1,2,3,4,5,6-hexahydrobenzo[f]quinolin-3-one]"
2,100,"Cc1ccc2c(c1)CCC1=C2CCC(=O)N1 [Example 13, 8-methyl-1,2,3,4,5,6-hexahydrobenzo[f]quinolin-3-one]"
3,56,"CCCCN1C(=O)CCC2=C1CCc1cc(F)ccc12 [Example 25, 8-fluoro-4-n-butyl-1,2,3,4,5,6-hexahydrobenzo[f]quinolin-3-one]"
4,98,"CN1C(=O)CCC2=C1CCc1cc(Br)ccc12 [Example 2, 8-bromo-4-methyl-1,2,3,4,5,6-hexahydrobenzo-[f]quinolin-3-one]"
5,81,"CN1C(=O)CCC2=C1CCc1cc(F)ccc12 [Example 6, 8-fluoro-4-methyl-1,2,3,4,5,6-hexahydrobenzo[f]quinolin-3-one]"
6,100,"Cc1ccc2c(c1)CCC1=C2CCC(=O)N1C [Example 5, 4,8-dimethyl-1,2,3,4,5,6-hexahydrobenzo[f]quinolin-3-one]"
7,76,"O=C1CCC2=C(CCc3cc(F)ccc32)N1 [Example 9, 8-fluoro-1,2,3,4,5,6-hexahydrobenzo[f]quinolin-3-one]"

row,Compound,inhibition at 10000 µM [%]
1,"CN1C(=O)CCC2=C1CCc1cc(Cl)ccc12 [Example 4, 8-chloro-4-methyl-1,2,3,4,5,6-hexahydrobenzo[f]quinolin-3-one]",91

# Same assay, conditions: Concentration 1.0 (1.00) mM; Hs68 cells, four hours incubation; 0 equals no activity, 100 equals total inhibition
row,% Inhibition [%],Compound
1,22,"O=C1CCC2=C(CCc3cccc(F)c32)N1 [Example 20, 10-fluoro-1,2,3,4,5,6-hexahydrobenzo[f]quinolin-3-one]"
